Experimental data published in patent US3989837A, “Pharmaceutical compositions” (Chinoin Gyogyszer-es Vegyeszeti Termekek Gyara RT, priority 1972, dated 1976).
Where “and” joins values, the source holds several entries; their conditions need not be identical. Identical values can stand only once.

How the values were obtained:
[1] = Toxicity on mice after oral administration, single dosage (Table 1'); type: in vivo; conditions: mouse, in vivo, po; male mice, p.o., 168 hours; read-out: LD50
Method: (§1) The tests were carried out on male mice weighing 25 to 30 g., not starved previously. The compounds were administered in a dosage of 0.2 ml. of suspension per 10 g. body weight. The individual dosages indicated in Table 1' were administered to 10 mice each. The given amount of active agent was added in a single dosage, and the animals were dept under observation for 7 days (= 168 hours). The number of deceased animals was recorded daily.
(§2) The LD50 values were calculated according to the Litchfied-Wilcoxon method, by also taking into account the number of animals perished within 168 hours from the administration.

mice = experiment: as above; type: in vivo; conditions: male mice
Method: as §1, §2

rats = experiment: Ulcerogeneous action on rats, comparison with Indomethacine (Table 3'); conditions: male rats, 5 days
cotton granuloma = experiment: Cotton granuloma, comparison with Indomethacine (Table 6); type: in vivo, rat; conditions: male rats, oral daily 4 mg./kg., 7 days, p 0.001
Method: Two cotton beads, each weighing 23 to 27 mg., were implanted under the dorsal skin of the animals in aether narcosis, under semisterile conditions, along both sides of the vertebral column. The compound under examination was administered twice a day for 7 days in oral dosages of 0.2 ml./100 g. body weight, in a suspension formed with 1% methyl cellulose. On the 8th day the animals were killed by etheral overnarcosis, the granulomes were removed, dried at 50° C for 5 hours, and then weighed. The animals belonging to the control group were treated similarly, but they received suspending agent only. The percentage efficiacy was calculated from the weight differences of the granuloma tissues observed for the treated and control groups. The significance was examined by the t test.

kaoline oedema = experiment: Rat paw oedema, kaoline (Table 4'); type: in vivo; conditions: female rats; for Effect % (average), inhibition of kaoline oedema: average of repeated tests
Method: (§3) Inflammatory plantar oedema was provided by the subplantar injection of 0.1 ml. of 5% kaoline or 0.5% carrageenine on female rats each weighing 110 to 130 g., starved for 24 hours. The dorsoplantar diameter of the test animals was measured with a double-armed instrument prior to the administration of the phlogistic (basic value) and at regular intervals (at 2, 3.5 and 5 hours for kaoline and at 1.5, 3 and 4.5 hours for carrageenine) after the administration of the phlogistic. […] The treatment was always carried out 1 hour before the administration of the phlogistic. The animals belonging to the control group received suspending agent only. In order to ensure a uniform hydration grade, 1 ml. of tap water was administered through a stomach tube to the animals simultaneously with the administration of the active agent. During the test period the animals were allowed to consume water ad libitum.
(§4) The effect was calculated from the difference of the increase in paw diameter observed in the treated and control groups. The daga are given as percentage efficiacy.
(§5) The significance level was examined by Student's t test. The significance levels are marked by asterisks; the values of the repeated tests are given separately.

carrageenine oedema = experiment: Rat paw oedema, carrageenine (Table 5'); type: in vivo; conditions: female rats, p.o. 10 mg./kg.; for Effect % (average), inhibition of carrageenine oedema: average of repeated tests
Method: as §3, §4, §5

writhing syndrome = experiment: Writhing syndrome, comparison with Indomethacine (Table 7); type: in vivo, mouse; conditions: male mice
Method: The tests were carried out on male mice each weighing 15 to 18 g., starved for 16 hours prior to treatment. 0.1 ml./10 g. body weight of 1% acetic acid solution was injected intraperitoneally to the animals. The sterile inflammation occurred on the action of acetic acid provoked a characteristic syndrome (writhing). The number of writhings was counted during an observation period of 20 minutes, starting 15 minutes after the administration of acetic acid. The substance to be tested was administered orally as a suspension, in a dosage of 0.1 ml./10 g. body weight 2 to 4 hours before the acetic acid injection. The average number of writhings observed for the treated animals was compared to that observed in the control group, and the percentage inhibition was calculated from the difference.

SMILES: COc1ccc2c(c1)c(CC(=O)O)c(C)n2C(=O)c1ccc(Cl)cc1 [Indomethacine, reference compound]
- LD50 at 168 h [1]: 140 mg/kg
- Perished animals/treated animals (mice; oral 50 mg./kg., 24 h): 0/10
- Perished animals/treated animals (mice; oral 50 mg./kg., 48 h): 0/10
- Perished animals/treated animals (mice; oral 50 mg./kg., 72 h): 0/10
- Perished animals/treated animals (mice; oral 50 mg./kg., 96 h): 0/10
- Perished animals/treated animals (mice; oral 50 mg./kg., 120 h): 0/10
- Perished animals/treated animals (mice; oral 50 mg./kg., 144 h): 0/10
- Perished animals/treated animals (mice; oral 50 mg./kg., 168 h): 0/10
- Perished animals/treated animals (mice; oral 150 mg./kg., 24 h): 0/10
- Perished animals/treated animals (mice; oral 150 mg./kg., 48 h): 0/10
- Perished animals/treated animals (mice; oral 150 mg./kg., 72 h): 0/10
- Perished animals/treated animals (mice; oral 150 mg./kg., 96 h): 2/10
- Perished animals/treated animals (mice; oral 150 mg./kg., 120 h): 4/10
- Perished animals/treated animals (mice; oral 150 mg./kg., 144 h): 6/10
- Perished animals/treated animals (mice; oral 150 mg./kg., 168 h): 6/10
- Perished animals/treated animals (mice; oral 300 mg./kg., 24 h): 0/10
- Perished animals/treated animals (mice; oral 300 mg./kg., 48 h): 0/10
- Perished animals/treated animals (mice; oral 300 mg./kg., 72 h): 4/10
- Perished animals/treated animals (mice; oral 300 mg./kg., 96 h): 6/10
- Perished animals/treated animals (mice; oral 300 mg./kg., 120 h): 8/10
- Perished animals/treated animals (mice; oral 300 mg./kg., 144 h): 10/10
- Perished animals/treated animals (mice; oral 300 mg./kg., 168 h): 10/10
- Perished animals/treated animals (mice; oral 500 mg./kg., 24 h): 0/10
- Perished animals/treated animals (mice; oral 500 mg./kg., 48 h): 2/10
- Perished animals/treated animals (mice; oral 500 mg./kg., 72 h): 4/10
- Perished animals/treated animals (mice; oral 500 mg./kg., 96 h): 7/10
- Perished animals/treated animals (mice; oral 500 mg./kg., 120 h): 9/10
- Perished animals/treated animals (mice; oral 500 mg./kg., 144 h): 10/10
- Perished animals/treated animals (mice; oral 500 mg./kg., 168 h): 10/10
- Perished animals/treated animals (mice; oral 700 mg./kg., 24 h): 1/10
- Perished animals/treated animals (mice; oral 700 mg./kg., 48 h): 5/10
- Perished animals/treated animals (mice; oral 700 mg./kg., 72 h): 5/10
- Perished animals/treated animals (mice; oral 700 mg./kg., 96 h): 7/10
- Perished animals/treated animals (mice; oral 700 mg./kg., 120 h): 9/10
- Perished animals/treated animals (mice; oral 700 mg./kg., 144 h): 9/10
- Perished animals/treated animals (mice; oral 700 mg./kg., 168 h): 10/10
- Perished animals/treated animals (mice; oral 900 mg./kg., 24 h): 1/10
- Perished animals/treated animals (mice; oral 900 mg./kg., 48 h): 4/10
- Perished animals/treated animals (mice; oral 900 mg./kg., 72 h): 6/10
- Perished animals/treated animals (mice; oral 900 mg./kg., 96 h): 8/10
- Perished animals/treated animals (mice; oral 900 mg./kg., 120 h): 10/10
- Perished animals/treated animals (mice; oral 900 mg./kg., 144 h): 10/10
- Perished animals/treated animals (mice; oral 900 mg./kg., 168 h): 10/10
- Animals having lesions on the intestines (rats; oral 4 mg./kg.): 5%
- Perishment (rats; oral 4 mg./kg.): 0/20
- Survivals (rats; oral 4 mg./kg.): 20
- Ulcer index (rats; oral 4 mg./kg.): 0.45
- Ulcer number (rats; oral 4 mg./kg.): 0.1
- Animals having lesions on the intestines (rats; oral 8 mg./kg.): 40%
- Perishment (rats; oral 8 mg./kg.): 10/20
- Survivals (rats; oral 8 mg./kg.): 10
- Ulcer index (rats; oral 8 mg./kg.): 0.3
- Ulcer number (rats; oral 8 mg./kg.): 0
- Effect %, cotton granuloma (cotton granuloma): 36.0%
- Effect %, inhibition of kaoline oedema (kaoline oedema; p.o. 10 mg./kg., 2 hours): 14.7% and 19.7%
- Effect % (average), inhibition of kaoline oedema (kaoline oedema; p.o. 10 mg./kg., 2 hours): 17.2%
- Effect %, inhibition of kaoline oedema (kaoline oedema; p.o. 10 mg./kg., 3.5 hours): 19.5% and 27.6%
- Effect % (average), inhibition of kaoline oedema (kaoline oedema; p.o. 10 mg./kg., 3.5 hours): 23.5%
- Effect %, inhibition of kaoline oedema (kaoline oedema; p.o. 10 mg./kg., 5 hours): 21.2% and 27.2%
- Effect % (average), inhibition of kaoline oedema (kaoline oedema; p.o. 10 mg./kg., 5 hours): 24.2%
- Effect %, inhibition of kaoline oedema (kaoline oedema; p.o. 25 mg./kg., 2 hours): 33.7% and 32.7%
- Effect % (average), inhibition of kaoline oedema (kaoline oedema; p.o. 25 mg./kg., 2 hours): 33.2%
- Effect %, inhibition of kaoline oedema (kaoline oedema; p.o. 25 mg./kg., 3.5 hours): 35.1% and 37.1%
- Effect % (average), inhibition of kaoline oedema (kaoline oedema; p.o. 25 mg./kg., 3.5 hours): 36.1%
- Effect %, inhibition of kaoline oedema (kaoline oedema; p.o. 25 mg./kg., 5 hours): 32.1% and 44.4%
- Effect % (average), inhibition of kaoline oedema (kaoline oedema; p.o. 25 mg./kg., 5 hours): 38.2%
- Effect %, inhibition of carrageenine oedema (carrageenine oedema; 1.5 hours): 24.1% and 20.6%
- Effect % (average), inhibition of carrageenine oedema (carrageenine oedema; 1.5 hours): 22.3%
- Effect %, inhibition of carrageenine oedema (carrageenine oedema; 3 hours): 32.9% and 28.8%
- Effect % (average), inhibition of carrageenine oedema (carrageenine oedema; 3 hours): 30.8%
- Effect %, inhibition of carrageenine oedema (carrageenine oedema; 4.5 hours): 19.8% and 20.9%
- Effect % (average), inhibition of carrageenine oedema (carrageenine oedema; 4.5 hours): 20.3%
- Effect %, writhing (writhing syndrome; p.o. 5 mg./kg., 2 hours): 58.2% and 61.1%
- Effect % average, writhing (writhing syndrome; p.o. 5 mg./kg., 2 hours): 59.6%
- Effect %, writhing (writhing syndrome; p.o. 5 mg./kg., 4 hours): 65.7% and 43.7%
- Effect % average, writhing (writhing syndrome; p.o. 5 mg./kg., 4 hours): 54.7%
- Effect %, writhing (writhing syndrome; p.o. 12.5 mg./kg., 2 hours): 73.6% and 67.2%
- Effect % average, writhing (writhing syndrome; p.o. 12.5 mg./kg., 2 hours): 70.4%
- Effect %, writhing (writhing syndrome; p.o. 12.5 mg./kg., 4 hours): 85.8% and 70.0%
- Effect % average, writhing (writhing syndrome; p.o. 12.5 mg./kg., 4 hours): 77.9%
